This is an account of results in patent publication US9649333B2, “Oxygenation procedures for newborns and devices for use therein” (UTI Limited Partnership, priority 2008, dated 2017).

This assay has as its system preterm infants. The note with it: for time immediately after birth to reach the target range: FIG. 3. From the text:
Blinded, randomized control trial of delivery room resuscitation in infants 32 weeks gestation comparing three O2 strategies. The High O2 Burden (HOB) group received a static concentration of 100% O2. In the Moderate O2 Burden (MOB) and Low O2 Burden (LOB) groups, resuscitation started with 100% and 21% O2, respectively. The inspired oxygen concentration was adjusted by 20% every 15 seconds in the MOB and LOB groups until the target SpO2 range of 85% to 92% was reached. SpO2 measurements were recorded every 2 seconds from the right wrist (pre-ductal) and the maximum sensitivity setting of the pulse oximetry was used. An anesthesia monitor continuously measured and recorded respiratory parameters including the peak inspiratory pressure, respiratory rate, end-tidal CO2 and inspired O2 concentration.
There were three sets of preterm infants that were part of this study. The LOB (low oxygen burden group—resuscitation began with room air given followed by a 20% increase every 15 sec as long as the oxygen saturation was less than 85%), MOB ([…] began with 100% oxygen given and decreased 20% every 15 sec as long as the oxygen saturation was greater than 92%) and HOB (high oxygen burden group—100% oxygen given continuously). The inventors enrolled 106 preterm infants (≦32 weeks gestation) (LOB=34, MOB=[…]).

Where [1] appears, read: HOB group: static 100% O2, target SpO2 85-92%.
The mark [2] stands for this setting: LOB group: start 21% O2, titrated.
[3] abbreviates: LOB group: start 21% O2, titrated, target SpO2 85-92%.
The mark [4] stands for this setting: MOB group: start 100% O2, titrated.
The mark [5] stands for this setting: MOB group: start 100% O2, titrated, target SpO2 85-92%.

SMILES strings stand for the structures. Like-named read-outs stand apart in the source and are kept apart here.

`O=O` [oxygen]: the “Mean duration of resuscitation” value is, setting by setting: (HOB group: static 100% O2) 590.62 s; under setting [2], 677.00 s; under setting [4], 665.00 s. Moreover, the “mean proportion of resuscitation time spent in the target SpO2 range (85-92%)” value was 11% (HOB group: static 100% O2), 16% under setting [2] and 21% under setting [4]. In addition, the “Mean proportion of time above target” value runs as follows: under setting [1], 0.49; under setting [3], 0.23; under setting [5], 0.28. The “Mean proportion of time below target” value turned out to be 0.40 under setting [1], 0.61 under setting [3] and 0.51 under setting [5]. Moreover, the “proportion of time above range” value under setting [1] came to 49%. For the same molecule, the “time immediately after birth to reach the target range” value is, setting by setting: (HOB group, target SpO2 85-92%) “approximately 5 minutes”; (MOB group, target SpO2 85-92%) “approximately 5 minutes”. The “Mean proportion of time in target” value is, setting by setting: (High O2 Burden (HOB) group: static 100% O2, target SpO2 85-92%) 0.11; (Low O2 Burden (LOB) group: start 21% O2, adjusted by 20% every 15 seconds, target SpO2 85-92%) 0.16; (Moderate O2 Burden (MOB) group: start 100% O2, adjusted by 20% every 15 seconds, target SpO2 85-92%) 0.21. Moreover, under setting [3], the “proportion of time below range” value was 61%. For the setting “MOB group versus LOB group, target SpO2 85-92%”, the “more time in target range than the LOB group” value is “approximately 25%”.
